This is an account of results in US8618163B2, “Derivatives of cycloalkyl- and cycloalkenyl-1,2-dicarboxylic acid compounds having formyl peptide receptor like-1 (FPRL-1) agonist or antagonist activity” (Allergan, Inc., priority 2010, dated 2013).

Each structure is given as a SMILES string. Like-named read-outs stand apart in the source and are kept apart here.

One test addresses T1, FPRL1 (Homo sapiens, UniProt P25090).
T1 construct: expressed in transfected cells; host or cells: CHO-Gal6 (CHO cells with G alpha 16)
T1 sequence (P25090 1-351): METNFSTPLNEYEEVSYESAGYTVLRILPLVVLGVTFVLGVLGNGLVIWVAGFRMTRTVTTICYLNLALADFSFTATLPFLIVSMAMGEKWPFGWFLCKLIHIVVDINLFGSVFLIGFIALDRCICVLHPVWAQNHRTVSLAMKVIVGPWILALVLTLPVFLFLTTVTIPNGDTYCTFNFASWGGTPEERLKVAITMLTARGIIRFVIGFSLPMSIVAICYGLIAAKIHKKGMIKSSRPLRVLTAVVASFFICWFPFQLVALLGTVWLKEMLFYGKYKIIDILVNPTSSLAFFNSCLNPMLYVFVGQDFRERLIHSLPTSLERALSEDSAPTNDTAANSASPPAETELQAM
Description: compound-induced calcium activity on FLIPR Tetra in CHO-Gal6 cells stably expressing FPRL1. The format is cell-based. To be noted: for FPRL1 (rel. eff.): relative efficacy. Put shortly: (§1)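 FPRL1 tested in CHO-Gal6 cells and FPR1 in HEK-Gqi5 cells, both stably expressing receptor and plated the day before. Compound-induced calcium response measured on FLIPR Tetra at 0.61 to 10,000 nM. EC50 (nM) and efficacy reported.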

The next test concerns the target T2, FPR1 (Homo sapiens, UniProt P21462).
T2 construct: expressed in transfected cells; host or cells: HEK-Gqi5 (HEK cells with chimeric G protein Gqi5)
T2 sequence (P21462 1-350): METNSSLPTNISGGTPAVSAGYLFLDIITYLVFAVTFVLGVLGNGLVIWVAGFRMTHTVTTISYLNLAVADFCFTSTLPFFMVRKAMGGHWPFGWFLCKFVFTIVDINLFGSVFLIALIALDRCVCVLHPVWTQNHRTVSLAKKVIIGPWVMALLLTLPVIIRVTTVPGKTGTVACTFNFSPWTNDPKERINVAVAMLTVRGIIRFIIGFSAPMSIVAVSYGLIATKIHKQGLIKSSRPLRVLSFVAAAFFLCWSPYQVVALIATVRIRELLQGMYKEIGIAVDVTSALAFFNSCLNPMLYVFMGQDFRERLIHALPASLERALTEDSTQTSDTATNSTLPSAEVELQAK
Description: compound-induced calcium activity on FLIPR Tetra in HEK-Gqi5 cells stable expressing FPR1. The format is cell-based. Also noted: FPR1 (rel. eff.): scale not given here. The note with it: for FPR1 (rel. eff.): relative efficacy. A digest of the protocol: as §1

Where [1] appears, read: calcium, FLIPR Tetra, tested 0.61 to 10,000 nM, read-out: FPRL1 EC50.
Setting [2] is: class symbol NA, read-out: FPR1 EC50 (NA = Not Active).

Regarding `NC(=O)C1C(C(=O)Nc2ccc(Br)cc2)C2CCC1C21CC1` (racemic) [Compound 46A], the EC50 – broadly, the concentration at which the effect is half-maximal – on FPRL1 (setting [1]) was 6520 nM; on FPR1 (setting [2]), more than 10 µM. Moreover, the “FPRL1 (rel. eff.)” value on FPRL1 (calcium, FLIPR Tetra) is 0.85.

For the compound `N=C[C@@H]1[C@H](C(=O)Nc2ccccc2)[C@@H]2CC[C@H]1C21CC1` (racemic) [Compound 93, (+/−)-(1S,2R,3S,4R)-3-(Iminomethyl)-N-phenylspiro[bicyclo[2.2.1]heptane-7,1′-cyclopropane]-2-carboxamide], the EC50 on FPRL1 (setting [1]) was 5810 nM; on FPR1 (setting [2]), more than 10 µM. The “FPRL1 (rel. eff.)” value on FPRL1 (calcium, FLIPR Tetra) amounted to 0.58.

As for `O=C(OCc1ccccc1)[C@@H]1[C@H](C(=O)Nc2ccc(Br)cc2)[C@@H]2CC[C@H]1C21CC1` (racemic) [Compound 85, (+/−)-(1S,2R,3S,4R)-Benzyl 2-((4-bromophenyl)carbamoyl)spiro[bicyclo[2.2.1]heptane-7,1′-cyclopropane]-3-carboxylate], the values for the EC50 on FPRL1 (setting [1]) and at FPR1 (setting [2]) were 2140 nM and more than 10 µM, respectively. For the same compound, the “FPRL1 (rel. eff.)” value on FPRL1 (calcium, FLIPR Tetra) turned out to be 0.88.

For `NC(=O)C1C(C(=O)Nc2ccc(Br)cc2)C2CCC1C21CC1` (racemic) [Compound 46B], the EC50 on FPRL1 (setting [1]) was less than 1 nM; at FPR1 (cells printed in μM, read-out: FPR1 EC50), more than 40 µM. The “FPRL1 (rel. eff.)” value on FPRL1 (calcium, FLIPR Tetra) was determined as 0.91. The “FPR1 (rel. eff.)” value on FPR1 (calcium, FLIPR Tetra) turned out to be 0.30.

`CSc1ccc(NC(=O)[C@H]2[C@@H](C(N)=O)[C@H]3CC[C@@H]2C3(C)C)cc1` (racemic) [Compound 56, (+/−)-(1S,2R,3S,4R)-7,7-Dimethyl-N2-(4-(methylthio)phenyl)bicyclo[2.2.1]heptane-2,3-dicarboxamide]: the “FPRL1 (rel. eff.)” value on FPRL1 (calcium, FLIPR Tetra) was “ND (0.96)”. For the same compound, on FPR1 (setting [2]), the EC50 is more than 10 µM.

Regarding `CC1(C)C2CCC1C(C(=O)Nc1ccc(I)cc1)C2C(N)=O` (racemic) [Compound 61, (+/−)-(1S,2R,3S,4R)—N^2-(4-Iodophenyl)-7,7-dimethylbicyclo[2.2.1]heptanes-2,3-dicarboxamide], the “FPRL1 (rel. eff.)” value at FPRL1 (calcium, FLIPR Tetra) was determined as 0.82. For the same compound, the EC50 at FPR1 (setting [2]) is more than 10 µM.

As for `CC(C)NC(=O)[C@@H]1[C@H](C(=O)Nc2ccc(Br)cc2)[C@@H]2CC[C@H]1C21CC1` (racemic) [Compound 79, (+/−)-(1S,2R,3S,4R)—N^2-(4-Bromophenyl)-N^3-isopropylspiro[bicyclo[2.2.1]heptane-7,1′-cyclopropane]-2,3-dicarboxamide], the EC50 on FPRL1 (setting [1]) is 6.6 nM; at FPR1 (setting [2]), more than 10 µM. Moreover, on FPRL1 (calcium, FLIPR Tetra), the “FPRL1 (rel. eff.)” value is on record as 1.0.

As for `O=C(O)[C@@H]1[C@H](C(=O)Nc2ccc(I)cc2)[C@@H]2CC[C@H]1C21CC1` (racemic) [Compound 9, (+/−)-(1R,2S,3R,4S)-3-(4-Iodophenylcarbamoyl)spiro[bicyclo[2.2.1]heptane-7,1′-cyclopropane]-2-carboxylic Acid], the EC50 on FPRL1 (setting [1]) came out at 1 nM; at FPR1 (calcium, FLIPR Tetra, tested 0.61 to 10,000 nM, read-out: FPR1 EC50), 0.269 µM. In addition, the “FPRL1 (rel. eff.)” value at FPRL1 (calcium, FLIPR Tetra) was found to be 0.80. At FPR1 (calcium, FLIPR Tetra), the “FPR1 (rel. eff.)” value amounted to 0.73.

`NC(=O)c1ccc(NC(=O)C2C(C(=O)O)C3CCC2C32CC2)cc1` (racemic) [Compound 74, (+/−)-(1S,2R,3S,4R)-2-((4-Carbomoylphenyl)carbamoyl)spiro[bicyclo[2.2.1]-heptan-7,1′-cyclopropane]-3-carboxylic Acid]: the results for the EC50 at FPRL1 (setting [1]) and at FPR1 (setting [2]) were 2770 nM and more than 10 µM, respectively. Besides, at FPRL1 (calcium, FLIPR Tetra), the “FPRL1 (rel. eff.)” value is 0.67.

With `CC(C)=C1[C@H]2C=C[C@@H]1[C@H](C(=O)O)[C@@H]2C(=O)Nc1ccc(Br)cc1` (racemic) [Compound 20, (+/−)-(1S,4R,5S,6R)-6-(4-Bromophenylcarbamoyl) [bicyclo[2.2.1]hept[2]ene-7-propan-2-ylidene]-5-carboxylic Acid], the figures for the EC50 at FPRL1 (setting [1]) and on FPR1 (setting [2]) were 30 nM and more than 10 µM, respectively. Also, the “FPRL1 (rel. eff.)” value on FPRL1 (calcium, FLIPR Tetra) was 0.96.

With `NC(=O)[C@@H]1[C@H](C(=O)Nc2ccc(I)cc2)[C@@H]2CC[C@H]1C21CC1` (racemic) [Compound 51, (+/−)-(1S,2R,3S,4R)—N2-(4-Iodophenyl)spiro[bicyclo[2.2.1]heptane-7,1′-cyclopropane]-2,3-dicarboxamide], the EC50 was less than 4.8 nM on FPRL1 (setting [1]) and more than 10 µM on FPR1 (setting [2]). Further, the “FPRL1 (rel. eff.)” value on FPRL1 (calcium, FLIPR Tetra) was found to be 0.87.

As for `CC(=O)Nc1ccc(NC(=O)[C@H]2[C@@H](C(=O)O)[C@H]3CC[C@@H]2C32CC2)cc1` (racemic) [Compound 75, (+/−)-(1S,2R,3S,4R)-2-((4-Acetamidophenyl)carbamoyl)spiro[bicyclo[2.2.1]-heptan-7,1′-cyclopropane]-3-carboxylic Acid], the EC50 is more than 10000 nM on FPRL1 (class symbol NA, read-out: FPRL1 EC50 (NA = Not Active)) and more than 10 µM on FPR1 (setting [2]).

Regarding `O=C(O)C1C(C(=O)Nc2cccc(C(F)(F)F)c2)C2C=CC1C21CC1` (racemic) [Compound 27, (+/−)-(1S,4R,5S,6R)-6-β3-(Trifluoromethyl)phenyl)carbamoyl)spiro[bicyclo-[2.2.1]hept[2]ene-7,1′-cyclopropane]-5-carboxylic Acid], the EC50 is 2770 nM on FPRL1 (setting [1]) and more than 10 µM on FPR1 (setting [2]). In addition, the “FPRL1 (rel. eff.)” value at FPRL1 (calcium, FLIPR Tetra) is listed as 0.72.

For the compound `NS(=O)(=O)c1ccc(NC(=O)C2C(C(=O)O)C3C=CC2C32CC2)cc1` (racemic) [Compound 8, (+/−)-(1S,4R,5S,6R)-6-(4-Sulfamoylphenylcarbamoyl)spiro[bicyclo[2.2.1]hept[2]ene-7,1′-cyclopropane]-5-carboxylic Acid], the EC50 was 2710 nM on FPRL1 (setting [1]) and more than 10 µM at FPR1 (setting [2]). Also, the “FPRL1 (rel. eff.)” value at FPRL1 (calcium, FLIPR Tetra) is listed as 0.51.

Take `CSc1ccc(NC(=O)[C@H]2[C@@H](C(N)=O)[C@H]3CC[C@@H]2C32CC2)cc1` (racemic) [Compound 67, (+/−)-(1S,2R,3S,4R)—N^2-(4-(Methylthio)phenyl)-spiro[bicyclo[2.2.1]heptane-7,1′-cyclopropane]-2,3-dicarboxamide]: the EC50 on FPRL1 (setting [1]) was 15.7 nM; at FPR1 (setting [2]), more than 10 µM. The “FPRL1 (rel. eff.)” value at FPRL1 (calcium, FLIPR Tetra) is 0.91.

For `NC(=O)C1C(C(=O)Nc2ccc(I)cc2)C2C=CC1C21CC1` (racemic) [Compound 69, (+/−)-(1R,4S,5R,6S)—N^5-(4-Iodophenyl)spiro[bicyclo[2.2.1]hept[2]ene-7,1′-cyclopropane]-5,6-dicarboxamide], the values for the EC50 on FPRL1 (setting [1]) and at FPR1 (setting [2]) were 7.7 nM and more than 10 µM, respectively. At FPRL1 (calcium, FLIPR Tetra), the “FPRL1 (rel. eff.)” value is given as 0.87.

Consider `O=C(Nc1ccc(Br)cc1)C1C(CO)C2C=CC1C21CC1` (racemic) [Compound 58, (+/−)-(1R,4S,5R,6S)—N-(4-Bromophenyl)-6-(hydroxymethyl)spiro[bicyclo[2.2.1]-hept[2]ene-7,1′-cyclopropane]-5-carboxamide], for which the results for the EC50 at FPRL1 (setting [1]) and on FPR1 (setting [2]) were 229 nM and more than 10 µM, respectively. Besides, at FPRL1 (calcium, FLIPR Tetra), the “FPRL1 (rel. eff.)” value was found to be 0.91.

On to `CCc1ccc(NC(=O)[C@H]2[C@@H](C(N)=O)[C@H]3CC[C@@H]2C3(C)C)cc1` (racemic) [Compound 57, (+/−)-(1S,2R,3S,4R)—N2-(4-Ethylphenyl)-7,7-dimethylbicyclo[2.2.1]heptane-2,3-dicarboxamide], for which the figures for the concentration for a half-maximal effect (EC50) on FPRL1 (setting [1]) and on FPR1 (setting [2]) were 35 nM and more than 10 µM, respectively. The “FPRL1 (rel. eff.)” value on FPRL1 (calcium, FLIPR Tetra) came out at 0.95.

`O=C(Nc1ccccc1)[C@H]1[C@@H](C=NO)[C@H]2CC[C@@H]1C21CC1` (racemic) [Compound 94, (+/−)-(1S,2R,3S,4R)-3-((Hydroxyimino)methyl)-N-phenylspiro[bicyclo[2.2.1]heptane-7,1′-cyclopropane]-2-carboxamide]: the figures for the EC50 at FPRL1 (setting [1]) and on FPR1 (setting [2]) were 2830 nM and more than 10 µM, respectively. Moreover, the “FPRL1 (rel. eff.)” value at FPRL1 (calcium, FLIPR Tetra) is on record as 0.49.

For `CCNC(=O)[C@@H]1[C@H](C(=O)Nc2ccc(Br)cc2)[C@@H]2CC[C@H]1C21CC1` (racemic) [Compound 78, (+/−)-(1S,2R,3S,4R)—N^2-(4-Bromophenyl)-N^3-ethylspiro[bicyclo[2.2.1]heptane-7,1′-cyclopropane]-2,3-dicarboxamide], the EC50 was 12.5 nM on FPRL1 (setting [1]) and more than 10 µM at FPR1 (setting [2]). Moreover, the “FPRL1 (rel. eff.)” value on FPRL1 (calcium, FLIPR Tetra) stood at 0.95.

For `CSc1ccc(NC(=O)C2C(C(N)=O)C3C=CC2C32CC2)cc1` (racemic) [Compound 49, (+/−)-(1R,4S,5R,6S)—N-5-(4-(Methylthio)phenyl)spiro[bicyclo[2.2.1]hept[2]ene-7,1′-cyclopropane]-5,6-dicarboxamide], the EC50 on FPRL1 (setting [1]) is 97 nM; at FPR1 (setting [2]), more than 10 µM. Also, the “FPRL1 (rel. eff.)” value at FPRL1 (calcium, FLIPR Tetra) was found to be 0.90.
